Measurements from patent publication US8795978B2, “Modulating latency and reactivation of Mycobacterium tuberculosis” (priority 2007, dated 2014).
Where two headings read alike, the source gives them in different places.

Assays:
DosS [1] = biological target: T1, DosS (Mycobacterium tuberculosis, UniProt P9WGK3); assay type: binding; settings: for binding to DosS heme iron (heme-nitrosyl / heme-carbonyl formation): ferrous DosS (DTH treated), UV-visible and EPR spectroscopy
DosT [2] = biological target: T2, DosT (Mycobacterium tuberculosis, UniProt P9WGK1); assay type: binding; settings: for binding to DosT heme iron (nitrosylated / carbonylated heme formation): deoxy DosT (DTH treated), UV-visible and EPR spectroscopy; for binding to DosT heme iron in the presence of O2: oxy DosT (Fe2+-O2)
DosS [3] = biological target: T1, DosS; assay type: biochemical
Procedure: (§1) In-vitro phosphorylation assays were performed according to previously described methods (Roberts et al., J. Biol. Chem., 2004, 279:22) and analyzed on 4-20% Tris-HCl gradient PAGE gels, dried and exposed to X-ray film overnight at −80° C. Formation of a heme-nitrosyl/carbonyl complex was first confirmed by absorption spectroscopy before analyzing samples for autokinase activity. As an additional control, air exposed samples were also treated with proline NONOate. The effect of CO on autokinase activity was measured similarly as described for NO, except that protein samples were flushed with 100% CO for 30 seconds. All autokinase reactions were performed inside the glove box.

DosT [4] = biological target: T2, DosT; assay type: biochemical
Procedure: as §1

[5] = DTH reduced DosS (Fe2+) exposed to ligand, relative to met DosS

T1 sequence (P9WGK3 whole entry): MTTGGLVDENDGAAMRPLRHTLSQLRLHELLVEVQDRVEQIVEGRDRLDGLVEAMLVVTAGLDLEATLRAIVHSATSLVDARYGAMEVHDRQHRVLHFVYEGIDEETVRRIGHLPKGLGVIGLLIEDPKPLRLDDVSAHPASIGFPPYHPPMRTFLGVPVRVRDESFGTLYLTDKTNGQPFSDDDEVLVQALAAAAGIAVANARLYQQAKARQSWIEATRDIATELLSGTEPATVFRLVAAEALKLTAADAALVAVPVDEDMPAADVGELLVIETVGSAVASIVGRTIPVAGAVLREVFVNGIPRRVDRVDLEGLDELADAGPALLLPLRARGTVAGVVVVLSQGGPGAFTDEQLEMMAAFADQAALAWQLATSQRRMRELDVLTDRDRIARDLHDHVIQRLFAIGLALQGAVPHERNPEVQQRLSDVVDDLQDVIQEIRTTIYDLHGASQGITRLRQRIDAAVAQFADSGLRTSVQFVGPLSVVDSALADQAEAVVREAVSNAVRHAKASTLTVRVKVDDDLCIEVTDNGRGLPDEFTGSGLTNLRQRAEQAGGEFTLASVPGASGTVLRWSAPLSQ
T2 sequence (P9WGK1 whole entry): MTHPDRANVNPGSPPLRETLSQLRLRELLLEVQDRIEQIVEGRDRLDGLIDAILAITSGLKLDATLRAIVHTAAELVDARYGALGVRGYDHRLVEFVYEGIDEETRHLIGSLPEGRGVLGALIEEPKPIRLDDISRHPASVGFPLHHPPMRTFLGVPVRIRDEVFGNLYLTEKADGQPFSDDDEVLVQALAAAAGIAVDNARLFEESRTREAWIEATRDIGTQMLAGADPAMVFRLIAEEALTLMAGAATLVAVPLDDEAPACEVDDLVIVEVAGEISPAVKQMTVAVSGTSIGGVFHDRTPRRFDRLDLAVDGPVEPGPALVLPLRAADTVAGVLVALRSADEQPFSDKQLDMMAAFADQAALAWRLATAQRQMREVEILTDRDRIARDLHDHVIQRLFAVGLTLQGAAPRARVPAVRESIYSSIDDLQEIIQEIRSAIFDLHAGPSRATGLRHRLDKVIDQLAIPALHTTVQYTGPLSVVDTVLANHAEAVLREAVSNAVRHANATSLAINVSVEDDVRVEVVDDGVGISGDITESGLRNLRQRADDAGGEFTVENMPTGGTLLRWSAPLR

SMILES: O=O [O2, oxygen]
- effect on DosS heme iron oxidation state (DosS [1]): rapidly oxidized by O2 to generate met DosS
- state of DosT heme iron after air exposure (DosT [2]): air exposed DosT is in the oxygen bound (oxy) form
- effect on DosS autokinase activity (DosS [3]): dramatically decreases its autokinase activity
- effect on DosT autokinase activity (DosT [4]): inhibits autokinase activity

SMILES: [C-]#[O+] [CO, carbon monoxide]
- binding to DosS heme iron (heme-nitrosyl / heme-carbonyl formation) (DosS [1]): generated heme-nitrosyl and heme-carbonyl DosS species
- binding to DosT heme iron (nitrosylated / carbonylated heme formation) (DosT [2]): highly characteristic of the formation of nitrosylated and carbonylated heme species
- binding to DosT heme iron in the presence of O2 (DosT [2]): highly indicative of a heme-carbonyl complex
- effect on DosS autokinase activity (DosS [3]; [5]): significantly increased autokinase activity as compared to inactive met DosS
- effect on DosS autokinase activity (DosS [3]; met DosS (Fe3+) exposed to ligand): found not to generate any further autokinase activity
- rank of DosT autokinase activity (DosT [4]; deoxy DosT (DTH reduced) treated with ligand vs untreated): deoxy DosT showed the highest autokinase activity, followed by CO-DosT and finally oxy DosT
- effect on DosT autokinase activity (DosT [4]; oxy DosT treated with ligand on the bench): significantly enhanced autokinase activity compared to inactive oxy DosT

SMILES: [N]=O [NO, nitric oxide]
- binding to DosS heme iron (heme-nitrosyl / heme-carbonyl formation) (DosS [1]): binds DosS
- binding to DosT heme iron (nitrosylated / carbonylated heme formation) (DosT [2]): binds deoxy DosT
- binding to DosT heme iron in the presence of O2 (DosT [2]): but not NO can effectively substitute O2 from oxy DosT
- effect on DosS autokinase activity (DosS [3]; [5]): significantly increased autokinase activity to levels comparable to active ferrous DosS autokinase activity
- effect on DosT autokinase activity (DosT [4]; ligand bound to DosT, compared with deoxy or oxy DosT): significantly increased autokinase activity as compared to inactive oxy DosT

SMILES: O=C([O-])[C@@H]1CCCN1/[N+]([O-])=N/[O-].[Na+].[Na+] [proline NONOate]
- binding to DosS heme iron (nitrosyl-heme EPR signal) (DosS [1]; air exposed (met, Fe3+) DosS): no EPR signal characteristic of a nitrosyl-heme species was generated
- binding to DosT heme iron in the presence of O2 (DosT [2]): did not generate any detectable nitrosyl-heme species
